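These data come from cells grown in 96-well plates and exposed to compound for 48 hours at five concentrations. The concentration for 50% growth inhibition is given as GI50. At the TGI there is no net growth.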
Assays:
Experiment in all cases: inhibition of tumour cell growth, NCI panel, 48 h
HCT-15 colon = system: HCT-15 colon
K-562 leukemia = system: K-562 leukemia
HCT-116 colon = system: HCT-116 colon
HCC-2998 colon = system: HCC-2998 colon
ACHN renal = system: ACHN renal
COLO 205 colon = system: COLO 205 colon
SN12C renal = system: SN12C renal
SK-MEL-5 melanoma = system: SK-MEL-5 melanoma
UACC-62 melanoma = system: UACC-62 melanoma
KM12 colon = system: KM12 colon
SF-295 CNS = system: SF-295 CNS
OVCAR-4 ovarian = system: OVCAR-4 ovarian
PC-3 prostate = system: PC-3 prostate
OVCAR-3 ovarian = system: OVCAR-3 ovarian
SK-OV-3 ovarian = system: SK-OV-3 ovarian
786-0 renal = system: 786-0 renal
HOP-62 NSCLC = system: HOP-62 NSCLC
SF-268 CNS = system: SF-268 CNS
UACC-257 melanoma = system: UACC-257 melanoma
BT-549 breast = system: BT-549 breast
HL-60(TB) leukemia = system: HL-60(TB) leukemia
MDA-MB-435 = system: MDA-MB-435
HT29 colon = system: HT29 colon
MCF7 breast = system: MCF7 breast
SNB-75 CNS = system: SNB-75 CNS
U251 CNS = system: U251 CNS
RXF 393 renal = system: RXF 393 renal
EKVX NSCLC = system: EKVX NSCLC
DU-145 prostate = system: DU-145 prostate
M14 melanoma = system: M14 melanoma
HOP-92 NSCLC = system: HOP-92 NSCLC
MALME-3M melanoma = system: MALME-3M melanoma
NCI-H460 lung = system: NCI-H460 lung
OVCAR-8 ovarian = system: OVCAR-8 ovarian
T-47D breast = system: T-47D breast
UO-31 renal = system: UO-31 renal
NCI-H226 lung = system: NCI-H226 lung
SK-MEL-2 melanoma = system: SK-MEL-2 melanoma
SNB-19 CNS = system: SNB-19 CNS
SW-620 colon = system: SW-620 colon
NCI-H23 lung = system: NCI-H23 lung
SF-539 CNS = system: SF-539 CNS
A549 NSCLC = system: A549 NSCLC
A498 renal = system: A498 renal
SK-MEL-28 melanoma = system: SK-MEL-28 melanoma
MOLT-4 leukemia = system: MOLT-4 leukemia
LOX IMVI melanoma = system: LOX IMVI melanoma
CCRF-CEM leukemia = system: CCRF-CEM leukemia
NCI/ADR-RES ovarian = system: NCI/ADR-RES ovarian
HS 578T breast = system: HS 578T breast
RPMI-8226 leukemia = system: RPMI-8226 leukemia
MDA-MB-231 breast = system: MDA-MB-231 breast
SR leukemia = system: SR leukemia
OVCAR-5 ovarian = system: OVCAR-5 ovarian
NCI-H522 lung = system: NCI-H522 lung

## C=CC(=O)N(C)[C@H]1C[C@H]2OC(C)(C1OC)n1c3ccccc3c3c4c(c5c6ccccc6n2c5c31)C(=O)NC4 (stereo partly drawn)
HCT-15 colon
  GI50: 99 nM
  TGI: 644 nM
K-562 leukemia
  GI50: 233 nM
  TGI: > 50 µM
HCT-116 colon
  GI50: 68.1 nM
  TGI: 672 nM
HCC-2998 colon
  GI50: 575 nM
  TGI: 1460 nM
ACHN renal
  GI50: 139 nM
  TGI: > 50 µM
COLO 205 colon
  GI50: 83.1 nM
  TGI: 253 nM
SN12C renal
  GI50: 52.1 nM
  TGI: 931 nM
SK-MEL-5 melanoma
  GI50: 262 nM
  TGI: 972 nM
UACC-62 melanoma
  GI50: 130 nM
  TGI: 835 nM
KM12 colon
  GI50: 22.8 nM
  TGI: 790 nM
SF-295 CNS
  GI50: 81.5 nM
  TGI: 827 nM
OVCAR-4 ovarian
  GI50: 93.9 nM
  TGI: > 50 µM
PC-3 prostate
  GI50: 182 nM
  TGI: 15.2 µM
OVCAR-3 ovarian
  GI50: 160 nM
  TGI: 851 nM
SK-OV-3 ovarian
  GI50: 95.5 nM
  TGI: 318 nM
786-0 renal
  GI50: 87.2 nM
  TGI: 690 nM
HOP-62 NSCLC
  GI50: 19.3 nM
  TGI: 176 nM
SF-268 CNS
  GI50: 59.9 nM
  TGI: 1260 nM
UACC-257 melanoma
  GI50: 216 nM
  TGI: 1390 nM
BT-549 breast
  GI50: 96.3 nM
  TGI: 553 nM
HL-60(TB) leukemia
  GI50: 129 nM
  TGI: 1590 nM
MDA-MB-435
  GI50: 364 nM
  TGI: 3.9 µM
HT29 colon
  GI50: 178 nM
  TGI: 2700 nM
MCF7 breast
  GI50: 123 nM
  TGI: > 50 µM
SNB-75 CNS
  GI50: 13.7 nM
  TGI: 76.6 nM
U251 CNS
  GI50: 123 nM
  TGI: 913 nM
RXF 393 renal
  GI50: 22.1 nM
  TGI: 157 nM
EKVX NSCLC
  GI50: 85 nM
  TGI: > 50 µM
DU-145 prostate
  GI50: 124 nM
  TGI: 18.7 µM
M14 melanoma
  GI50: 115 nM
  TGI: 1740 nM
HOP-92 NSCLC
  GI50: 40.2 nM
  TGI: 266 nM
MALME-3M melanoma
  GI50: 70.6 nM
  TGI: 449 nM
NCI-H460 lung
  GI50: 87.6 nM
  TGI: 1010 nM
OVCAR-8 ovarian
  GI50: 217 nM
T-47D breast
  GI50: 77.4 nM
UO-31 renal
  GI50: 18 nM
  TGI: 85.4 nM
NCI-H226 lung
  GI50: 96.3 nM
  TGI: 920 nM
SK-MEL-2 melanoma
  GI50: 193 nM
  TGI: 1490 nM
SNB-19 CNS
  GI50: 170 nM
  TGI: 1710 nM
SW-620 colon
  GI50: 51.4 nM
  TGI: 792 nM
NCI-H23 lung
  GI50: 158 nM
  TGI: 2080 nM
SF-539 CNS
  GI50: 83 nM
  TGI: 379 nM
A549 NSCLC
  GI50: 93.8 nM
  TGI: > 20 µM
A498 renal
  GI50: 34.9 nM
  TGI: 182 nM
SK-MEL-28 melanoma
  GI50: 369 nM
  TGI: 2080 nM
MOLT-4 leukemia
  GI50: 77.3 nM
  TGI: 899 nM
LOX IMVI melanoma
  GI50: 82.3 nM
  TGI: 670 nM
CCRF-CEM leukemia
  GI50: 33.7 nM
  TGI: 1350 nM
NCI/ADR-RES ovarian
  GI50: 182 nM
  TGI: 3.59 µM
HS 578T breast
  GI50: 88.7 nM
  TGI: 600 nM
RPMI-8226 leukemia
  GI50: 103 nM
  TGI: 1500 nM
MDA-MB-231 breast
  GI50: 78.3 nM
  TGI: 1040 nM
SR leukemia
  GI50: 98.3 nM
  TGI: 776 nM
OVCAR-5 ovarian
  GI50: 106 nM
  TGI: > 50 µM
NCI-H522 lung
  GI50: 83.9 nM
  TGI: 565 nM
